Measured values reported in patent publication US20220306695A1, “COMPSTATIN ANALOGUES AND THEIR MEDICAL USES” (priority 2019, published 2022).
Starred links: 1 amine or outer side, 2 acyl side, 3 side chain; linkers in the order of their positions; H or OH if unused. Positions of bridges follow the written chain, without caps; N, C: chain ends. Non-standard residues stand in square brackets, D forms with d. Residues, ends and D or L forms follow the SMILES beside them. Groups on a side chain read outwards from the residue. *: point of attachment. Trp(1-Me) = Cn1cc(C[C@H](N)C(=O)O)c2ccccc21; C16 diacid = O=C(O)CCCCCCCCCCCCCCC(=O)*; γGlu = O=C(O)[C@H](CCC(=O)[*:2])N[*:1]; 1Nal = N[C@@H](Cc1cccc2ccccc12)C(=O)O; AEEA = NCCOCCOCC(=O)O; Sar = CNCC(=O)O

Columns and labels:
[1] = Solubility test at 10 mg/mL (visual inspection and light scattering); type: physicochemical; details: for Solubility, Condition 1 Acetate pH 4: 10 mg/mL compound in 100 mM acetate pH 4; for Solubility, Condition 2 Acetate pH 5: 10 mg/mL compound in 100 mM acetate pH 5; for Solubility, Condition 3 Phosphate pH 6: 10 mg/mL compound in 100 mM phosphate pH 6; for Solubility, Condition 4 Phosphate pH 7: 10 mg/mL compound in 100 mM phosphate pH 7; for Solubility, Condition 5 Phosphate pH 7.5: 10 mg/mL compound in 100 mM phosphate pH 7.5
[2] = system: classical complement pathway; experiment: In vitro haemolysis assay (inhibition of classical complement pathway); type: cell-based, human; details: Table 3; human serum, sensitized sheep red blood cells; read-out: IC50[nM], in vitro analysis of inhibition of hemolysis
Procedure, shortened: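 Serially diluted compound (9 points) was preincubated 15 min at room temperature with diluted human serum, titrated per batch to give 70-90% maximal haemolysis, in Tris/casein buffer pH 7.4 with Mg2+/Ca2+. Antibody-sensitized sheep erythrocytes were then added for 30 min at 37° C, and the reaction was stopped with EDTA. Haemolysis was read at A405, with IC50 from 4PL fit.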

[3] = target: Human C3 (human, UniProt P01024 23-1663); experiment: cell-based or functional assay
Sequence of Human C3 (P01024 23-1663 limits assumed): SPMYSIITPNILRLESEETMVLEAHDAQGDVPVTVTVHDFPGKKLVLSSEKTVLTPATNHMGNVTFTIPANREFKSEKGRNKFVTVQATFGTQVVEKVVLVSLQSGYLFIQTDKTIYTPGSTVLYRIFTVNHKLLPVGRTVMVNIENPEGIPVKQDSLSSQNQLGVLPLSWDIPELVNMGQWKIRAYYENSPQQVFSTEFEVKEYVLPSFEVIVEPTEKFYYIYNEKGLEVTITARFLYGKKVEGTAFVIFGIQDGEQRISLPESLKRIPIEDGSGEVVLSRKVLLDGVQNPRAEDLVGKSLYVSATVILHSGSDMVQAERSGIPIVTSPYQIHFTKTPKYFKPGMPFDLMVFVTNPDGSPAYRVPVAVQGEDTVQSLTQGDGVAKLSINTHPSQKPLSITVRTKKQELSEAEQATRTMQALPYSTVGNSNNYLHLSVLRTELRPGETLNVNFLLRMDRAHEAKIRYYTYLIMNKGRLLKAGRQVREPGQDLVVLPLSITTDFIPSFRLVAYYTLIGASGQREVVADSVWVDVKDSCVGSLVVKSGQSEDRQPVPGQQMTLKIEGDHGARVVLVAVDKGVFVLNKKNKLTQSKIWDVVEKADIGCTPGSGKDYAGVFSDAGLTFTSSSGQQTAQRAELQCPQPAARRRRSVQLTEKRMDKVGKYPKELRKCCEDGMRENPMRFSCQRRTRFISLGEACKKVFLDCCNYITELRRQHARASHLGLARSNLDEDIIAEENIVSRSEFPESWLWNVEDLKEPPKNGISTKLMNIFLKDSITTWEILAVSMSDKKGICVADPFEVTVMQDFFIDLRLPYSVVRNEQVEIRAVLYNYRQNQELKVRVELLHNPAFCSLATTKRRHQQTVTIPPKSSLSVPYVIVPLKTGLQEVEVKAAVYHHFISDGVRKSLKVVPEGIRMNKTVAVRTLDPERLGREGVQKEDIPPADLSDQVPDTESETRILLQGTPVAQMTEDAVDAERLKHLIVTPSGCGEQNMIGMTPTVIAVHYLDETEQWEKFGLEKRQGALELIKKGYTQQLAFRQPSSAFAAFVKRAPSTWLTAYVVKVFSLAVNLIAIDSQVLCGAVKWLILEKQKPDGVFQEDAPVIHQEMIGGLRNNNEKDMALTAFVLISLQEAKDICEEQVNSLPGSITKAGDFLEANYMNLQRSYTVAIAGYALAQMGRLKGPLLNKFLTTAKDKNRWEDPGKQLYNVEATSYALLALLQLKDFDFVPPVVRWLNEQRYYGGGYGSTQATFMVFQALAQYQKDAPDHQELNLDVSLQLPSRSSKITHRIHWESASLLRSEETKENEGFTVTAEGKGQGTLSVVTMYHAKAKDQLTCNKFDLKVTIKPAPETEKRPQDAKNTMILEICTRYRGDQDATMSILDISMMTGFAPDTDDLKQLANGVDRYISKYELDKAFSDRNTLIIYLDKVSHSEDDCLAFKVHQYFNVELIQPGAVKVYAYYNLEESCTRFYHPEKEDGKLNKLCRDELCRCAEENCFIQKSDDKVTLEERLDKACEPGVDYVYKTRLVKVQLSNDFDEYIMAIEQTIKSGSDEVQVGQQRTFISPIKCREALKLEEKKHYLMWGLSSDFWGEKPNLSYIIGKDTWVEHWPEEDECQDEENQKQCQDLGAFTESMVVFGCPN

| Molecule | Solubility, Condition 1 Acetate pH 4 [1] | Solubility, Condition 2 Acetate pH 5 [1] | Solubility, Condition 3 Phosphate pH 6 [1] | Solubility, Condition 4 Phosphate pH 7 [1] | Solubility, Condition 5 Phosphate pH 7.5 [1] | IC50 [2] [nM] | IC50[nM], inhibition of hemolysis [3] [nM] |
| --- | --- | --- | --- | --- | --- | --- | --- |
| CC[C@H](C)[C@@H]1NC(=O)[C@@H](NC(=O)[C@H](Cc2ccccc2)NC(C)=O)CSSC[C@@H](C(=O)N[C@H](C(=O)NCC(=O)N[C@@H](C)C(=O)N[C@@H](CCC(=O)O)C(=O)N[C@@H](CO)C(N)=O)[C@@H](C)O)NC(=O)[C@H](CCCNC(=N)N)NC(=O)[C@H](Cc2c[nH]cn2)NC(=O)[C@H](CCC(=O)O)NC(=O)CN(C)C(=O)[C@H](Cc2c[nH]c3ccccc23)NC(=O)[C@H](CC(=O)O)NC(=O)[C@H](CCC(N)=O)NC(=O)[C@H](Cc2cn(C)c3ccccc23)NC1=O [Compound 72, Ac-FC(1)I[1-Me-Trp]QDW[Sar]EHRC(1)TGAES-NH2] (Ac-FCI[Trp(1-Me)]QDW[Sar]EHRCTGAES-NH2; disulfide 2-12) | − (denotes lack of solubility at the given condition, as UV absorbance at 340 nm exceeds 0.1 AU and/or it is visibly turbid or contains particles.) | − (denotes lack of solubility at the given condition, as UV absorbance at 340 nm exceeds 0.1 AU and/or it is visibly turbid or contains particles.) | + (denotes solubility at the given condition, as determined by UV absorbance being less than 0.1 AU at 340 nm and the sample being clear when manually inspected.) | + (denotes solubility at the given condition, as determined by UV absorbance being less than 0.1 AU at 340 nm and the sample being clear when manually inspected.) | + (denotes solubility at the given condition, as determined by UV absorbance being less than 0.1 AU at 340 nm and the sample being clear when manually inspected.) | < 100 | – |
| CC[C@H](C)[C@@H]1NC(=O)[C@@H](NC(=O)[C@H](Cc2ccccc2)NC(=O)[C@H](C)NC(=O)[C@H](CO)NC(=O)CNC(=O)[C@H](CCC(=O)O)NC(C)=O)CSSC[C@@H](C(=O)N(C)CC(=O)N[C@@H](CCC(=O)O)C(N)=O)NC(=O)[C@H](CCCNC(=N)N)NC(=O)[C@H](Cc2c[nH]cn2)NC(=O)[C@H](CCC(=O)O)NC(=O)CNC(=O)[C@H](Cc2c[nH]c3ccccc23)NC(=O)[C@H](CC(=O)O)NC(=O)[C@H](CCC(N)=O)NC(=O)[C@H](Cc2c[nH]c3ccccc23)NC1=O [Compound 45] (Ac-EGSAFCIWQDWGEHRC[Sar]E-NH2; disulfide 6-16) | − (denotes lack of solubility at the given condition, as UV absorbance at 340 nm exceeds 0.1 AU and/or it is visibly turbid or contains particles.) | + (denotes solubility at the given condition, as determined by UV absorbance being less than 0.1 AU at 340 nm and the sample being clear when manually inspected.) | + (denotes solubility at the given condition, as determined by UV absorbance being less than 0.1 AU at 340 nm and the sample being clear when manually inspected.) | + (denotes solubility at the given condition, as determined by UV absorbance being less than 0.1 AU at 340 nm and the sample being clear when manually inspected.) | + (denotes solubility at the given condition, as determined by UV absorbance being less than 0.1 AU at 340 nm and the sample being clear when manually inspected.) | < 100 | – |
| CC[C@H](C)[C@H](NC(C)=O)C(=O)N[C@H]1CSSC[C@@H](C(=O)N[C@@H](CCC(=O)O)C(N)=O)NC(=O)[C@H](CCCNC(=N)N)NC(=O)[C@H](Cc2c[nH]cn2)NC(=O)[C@H](CCC(=O)O)NC(=O)CNC(=O)[C@H](Cc2c[nH]c3ccccc23)NC(=O)[C@H](CC(=O)O)NC(=O)[C@H](CCC(N)=O)NC(=O)[C@H](Cc2c[nH]c3ccccc23)NC(=O)[C@H]([C@@H](C)CC)NC1=O [Compound 22] (Ac-ICIWQDWGEHRCE-NH2; disulfide 2-12) | + (denotes solubility at the given condition, as determined by UV absorbance being less than 0.1 AU at 340 nm and the sample being clear when manually inspected.) | − (denotes lack of solubility at the given condition, as UV absorbance at 340 nm exceeds 0.1 AU and/or it is visibly turbid or contains particles.) | − (denotes lack of solubility at the given condition, as UV absorbance at 340 nm exceeds 0.1 AU and/or it is visibly turbid or contains particles.) | + (denotes solubility at the given condition, as determined by UV absorbance being less than 0.1 AU at 340 nm and the sample being clear when manually inspected.) | + (denotes solubility at the given condition, as determined by UV absorbance being less than 0.1 AU at 340 nm and the sample being clear when manually inspected.) | < 100 | – |
| CC[C@H](C)[C@@H]1NC(=O)[C@@H](NC(=O)[C@H](Cc2ccccc2)NC(C)=O)CSSC[C@@H](C(=O)N[C@H](C(=O)NCC(=O)N[C@@H](C)C(=O)N[C@@H](CCC(=O)O)C(=O)N[C@@H](CO)C(N)=O)[C@@H](C)O)NC(=O)[C@H](CCCNC(=N)N)NC(=O)[C@H](Cc2c[nH]cn2)NC(=O)[C@H](CCC(=O)O)NC(=O)CNC(=O)[C@H](Cc2c[nH]c3ccccc23)NC(=O)[C@H](CC(=O)O)NC(=O)[C@H](CCC(N)=O)NC(=O)[C@H](Cc2cccc3ccccc23)NC1=O [Compound 63] (Ac-FCI[1Nal]QDWGEHRCTGAES-NH2; disulfide 2-12) | − (denotes lack of solubility at the given condition, as UV absorbance at 340 nm exceeds 0.1 AU and/or it is visibly turbid or contains particles.) | − (denotes lack of solubility at the given condition, as UV absorbance at 340 nm exceeds 0.1 AU and/or it is visibly turbid or contains particles.) | + (denotes solubility at the given condition, as determined by UV absorbance being less than 0.1 AU at 340 nm and the sample being clear when manually inspected.) | + (denotes solubility at the given condition, as determined by UV absorbance being less than 0.1 AU at 340 nm and the sample being clear when manually inspected.) | + (denotes solubility at the given condition, as determined by UV absorbance being less than 0.1 AU at 340 nm and the sample being clear when manually inspected.) | < 100 | – |
| Ac-ICIWQDWGEHRCTEGEK([AEEA-AEEA-γGlu-C16 diacid])-NH2 (disulfide 2-12; SMILES CC[C@H](C)[C@H](NC(C)=O)C(=O)N[C@H]1CSSC[C@@H](C(=O)N[C@H](C(=O)N[C@@H](CCC(=O)O)C(=O)NCC(=O)N[C@@H](CCC(=O)O)C(=O)N[C@@H](CCCCNC(=O)COCCOCCNC(=O)COCCOCCNC(=O)CC[C@H](NC(=O)CCCCCCCCCCCCCCC(=O)O)C(=O)O)C(N)=O)[C@@H](C)O)NC(=O)[C@H](CCCNC(=N)N)NC(=O)[C@H](Cc2c[nH]cn2)NC(=O)[C@H](CCC(=O)O)NC(=O)CNC(=O)[C@H](Cc2c[nH]c3ccccc23)NC(=O)[C@H](CC(=O)O)NC(=O)[C@H](CCC(N)=O)NC(=O)[C@H](Cc2c[nH]c3ccccc23)NC(=O)[C@H]([C@@H](C)CC)NC1=O) [Compound 94] | – | – | – | – | – | – | < 500 |
| Ac-ICI[Trp(1-Me)]QDWGEHRCT-NH2 (disulfide 2-12; SMILES CC[C@H](C)[C@H](NC(C)=O)C(=O)N[C@H]1CSSC[C@@H](C(=O)N[C@H](C(N)=O)[C@@H](C)O)NC(=O)[C@H](CCCNC(=N)N)NC(=O)[C@H](Cc2c[nH]cn2)NC(=O)[C@H](CCC(=O)O)NC(=O)CNC(=O)[C@H](Cc2c[nH]c3ccccc23)NC(=O)[C@H](CC(=O)O)NC(=O)[C@H](CCC(N)=O)NC(=O)[C@H](Cc2cn(C)c3ccccc23)NC(=O)[C@H]([C@@H](C)CC)NC1=O) [Compound 4] | – | – | – | – | – | – | < 100 |
